In article PMC8773328, “Antioxidative and Analgesic Effects of Naringin through Selective Inhibition of Transient Receptor Potential Vanilloid Member 1” (Antioxidants, 2021) one finds IC50 data, which are given here for 2 molecules.

Molecules are shown by their SMILES.

What all share (type): cell-based
Assay [1] has as its target T1, Transient receptor potential vanilloid member 1 (TRPV1) (Rattus norvegicus, UniProt O35433).
T1 construct: Rat TRPV1 cDNA (NM_031982)
Nature of the assay: two-electrode voltage clamp in Xenopus oocytes expressing TRPV1, inhibition of current (reference antagonist). Background: Two-electrode voltage clamp is typically applied to oocytes expressing channels or transporters.

Assay [2] addresses T2, Transient receptor potential vanilloid member 1 (TRPV1) (Rattus norvegicus, UniProt O35433, N628A).
T2 construct: Rat TRPV1 cDNA (NM_031982), N628A
Nature of the assay: two-electrode voltage clamp in Xenopus oocytes expressing mutant TRPV1, inhibition of capsaicin-induced current (reduced maximum inhibition). Particulars: read-out: Hill Equation / y = Vmin + (Vmax - Vmin) × x^n/(k^n x^n) / Value.

For assay [3], the target named is T1, Transient receptor potential vanilloid member 1 (TRPV1). Nature of the assay: two-electrode voltage clamp in Xenopus oocytes expressing TRPV1, inhibition of capsaicin-induced current.

T1 sequence (O35433 whole entry): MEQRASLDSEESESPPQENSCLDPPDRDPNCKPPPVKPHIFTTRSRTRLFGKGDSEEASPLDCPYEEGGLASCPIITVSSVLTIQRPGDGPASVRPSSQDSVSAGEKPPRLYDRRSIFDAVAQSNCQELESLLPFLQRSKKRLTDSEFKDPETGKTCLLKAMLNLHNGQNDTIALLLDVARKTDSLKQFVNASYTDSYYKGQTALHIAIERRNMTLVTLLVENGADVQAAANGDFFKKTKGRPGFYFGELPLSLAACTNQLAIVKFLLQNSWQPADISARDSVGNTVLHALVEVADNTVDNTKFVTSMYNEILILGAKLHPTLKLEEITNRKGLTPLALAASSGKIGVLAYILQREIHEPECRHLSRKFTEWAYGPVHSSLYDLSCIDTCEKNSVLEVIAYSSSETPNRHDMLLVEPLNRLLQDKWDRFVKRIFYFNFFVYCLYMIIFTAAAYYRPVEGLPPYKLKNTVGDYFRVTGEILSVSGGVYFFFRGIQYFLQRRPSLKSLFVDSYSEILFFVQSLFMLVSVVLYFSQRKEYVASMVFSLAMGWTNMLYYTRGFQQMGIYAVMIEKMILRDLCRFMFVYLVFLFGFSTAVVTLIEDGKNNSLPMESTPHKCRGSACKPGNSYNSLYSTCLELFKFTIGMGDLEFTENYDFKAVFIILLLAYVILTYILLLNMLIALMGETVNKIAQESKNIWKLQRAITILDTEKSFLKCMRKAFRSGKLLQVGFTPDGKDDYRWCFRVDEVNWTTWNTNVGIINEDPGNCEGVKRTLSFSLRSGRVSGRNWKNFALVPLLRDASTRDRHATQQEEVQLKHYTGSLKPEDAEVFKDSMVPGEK
T2 sequence (O35433 whole entry N628A): as the sequence (O35433 whole entry) above, with N628A counted along it

On to `Oc1cc2c(cc1O)CN(C(=S)NCCc1ccc(Cl)cc1)CCC2` [capsazepine], for which, in assay [1], the IC50 came out at 10.1 µM.
For the molecule `C[C@@H]1O[C@@H](O[C@H]2[C@H](Oc3cc(O)c4c(c3)O[C@H](c3ccc(O)cc3)CC4=O)O[C@H](CO)[C@@H](O)[C@@H]2O)[C@H](O)[C@H](O)[C@H]1O` [naringin], the IC50 worked out at 24.2 µM in assay [2] and 33.3 µM in assay [3].
